Measurements as given in PMC12595434, “Development of retinoid nuclear receptor pathway antagonists through targeting aldehyde dehydrogenase 1A3” (iScience, 2025).
“And” between values parts separate entries of the source, which are not always exact repeats. Identical values can stand only once.

Experiments:
Ca2+-L = experiment: Off-target profiling panel; format: binding; settings: 10 μM
PDE3A = PDE3A (Homo sapiens, UniProt Q14432); experiment: Off-target profiling panel; format: biochemical
op-mu = op-mu (Homo sapiens, UniProt P35372); experiment: Off-target profiling panel; format: binding; settings: read-out: Inhibition by MBE1 at 10 μM (%)
HEK293 cells = experiment: Metabolomic profiling of treated cell lines (raw metabolite counts); format: cell-based; settings: HEK293_Inhibitor, replicates A-C
Excerpt: Supplement mmc8.xlsx, sheet "Supplement Table 7" | column: HEK293_Inhibitor_A; HEK293_Inhibitor_B; HEK293_Inhibitor_C

hKCNQ1 = hKCNQ1 (Homo sapiens, UniProt P51787); experiment: Off-target profiling panel; format: cell-based; settings: read-out: Inhibition by MBE1 at 10 μM (%)
CDCP1 = biological target: T1, CDCP1 (Homo sapiens, UniProt Q9H5V8); experiment: Thermal proteome profiling (TPP) in A375 cells; format: cell-based; settings: CDCP1, 1 uM
T1 construct: Treated A375 cells were harvested from 10 × 15 cm plates; endogenous in cells; host or cells: A375 melanoma cells

AR = AR (Homo sapiens, UniProt P10275); experiment: Off-target profiling panel; format: binding; settings: read-out: Inhibition by MBE1 at 10 μM (%)
5HT3 = 5HT3 (Homo sapiens, UniProt P46098); experiment: Off-target profiling panel; format: binding; settings: read-out: Inhibition by MBE1 at 10 μM (%)
5HT2A = 5HT2A (Homo sapiens, UniProt P28223); experiment: Off-target profiling panel; format: binding; settings: read-out: Inhibition by MBE1 at 10 μM (%)
NET = NET (Homo sapiens, UniProt P23975); experiment: Off-target profiling panel; format: binding; settings: read-out: Inhibition by MBE1 at 10 μM (%)
T3-MCA tumors = experiment: Tumor infiltrating immune cell profiling of T3-MCA tumors; settings: oral gavage, 7 days of treatment
M2 = M2 (Homo sapiens, UniProt P08172); experiment: Off-target profiling panel; format: binding; settings: read-out: Inhibition by MBE1 at 10 μM (%)
CCKa = CCKa (Homo sapiens, UniProt P32238); experiment: Off-target profiling panel; format: binding; settings: read-out: Inhibition by MBE1 at 10 μM (%)
D1 = D1 (Homo sapiens, UniProt P21728); experiment: Off-target profiling panel; format: binding; settings: read-out: Inhibition by MBE1 at 10 μM (%)
hERG = hERG (Homo sapiens, UniProt Q12809); experiment: Off-target profiling panel; format: binding; settings: read-out: Inhibition by MBE1 at 10 μM (%)
AsPC-1 cells = experiment: Metabolomic profiling of treated cell lines (raw metabolite counts); format: cell-based; settings: AsPC-1:MBE, replicates
Excerpt: Supplement mmc8.xlsx, sheet "Supplement Table 7" | column: AsPC-1:MBE

Beta2 = Beta2 (Homo sapiens, UniProt P07550); experiment: Off-target profiling panel; format: binding; settings: read-out: Inhibition by MBE1 at 10 μM (%)
Eta agonist = Eta agonist (Homo sapiens, UniProt P25101); experiment: Off-target profiling panel; format: cell-based; settings: read-out: Inhibition by MBE1 at 10 μM (%)
Beta1 = Beta1 (Homo sapiens, UniProt P08588); experiment: Off-target profiling panel; format: binding; settings: read-out: Inhibition by MBE1 at 10 μM (%)
Alpha2A = Alpha2A (Homo sapiens, UniProt P08913); experiment: Off-target profiling panel; format: binding; settings: read-out: Inhibition by MBE1 at 10 μM (%)
[1] = system: panel of cancer cell lines; experiment: 48 h proliferation, WST-8 tetrazolium dye assay; format: cell-based, human; settings: 48-h proliferation assays, 23 cell lines

PDE3A, sequence (Q14432 whole entry): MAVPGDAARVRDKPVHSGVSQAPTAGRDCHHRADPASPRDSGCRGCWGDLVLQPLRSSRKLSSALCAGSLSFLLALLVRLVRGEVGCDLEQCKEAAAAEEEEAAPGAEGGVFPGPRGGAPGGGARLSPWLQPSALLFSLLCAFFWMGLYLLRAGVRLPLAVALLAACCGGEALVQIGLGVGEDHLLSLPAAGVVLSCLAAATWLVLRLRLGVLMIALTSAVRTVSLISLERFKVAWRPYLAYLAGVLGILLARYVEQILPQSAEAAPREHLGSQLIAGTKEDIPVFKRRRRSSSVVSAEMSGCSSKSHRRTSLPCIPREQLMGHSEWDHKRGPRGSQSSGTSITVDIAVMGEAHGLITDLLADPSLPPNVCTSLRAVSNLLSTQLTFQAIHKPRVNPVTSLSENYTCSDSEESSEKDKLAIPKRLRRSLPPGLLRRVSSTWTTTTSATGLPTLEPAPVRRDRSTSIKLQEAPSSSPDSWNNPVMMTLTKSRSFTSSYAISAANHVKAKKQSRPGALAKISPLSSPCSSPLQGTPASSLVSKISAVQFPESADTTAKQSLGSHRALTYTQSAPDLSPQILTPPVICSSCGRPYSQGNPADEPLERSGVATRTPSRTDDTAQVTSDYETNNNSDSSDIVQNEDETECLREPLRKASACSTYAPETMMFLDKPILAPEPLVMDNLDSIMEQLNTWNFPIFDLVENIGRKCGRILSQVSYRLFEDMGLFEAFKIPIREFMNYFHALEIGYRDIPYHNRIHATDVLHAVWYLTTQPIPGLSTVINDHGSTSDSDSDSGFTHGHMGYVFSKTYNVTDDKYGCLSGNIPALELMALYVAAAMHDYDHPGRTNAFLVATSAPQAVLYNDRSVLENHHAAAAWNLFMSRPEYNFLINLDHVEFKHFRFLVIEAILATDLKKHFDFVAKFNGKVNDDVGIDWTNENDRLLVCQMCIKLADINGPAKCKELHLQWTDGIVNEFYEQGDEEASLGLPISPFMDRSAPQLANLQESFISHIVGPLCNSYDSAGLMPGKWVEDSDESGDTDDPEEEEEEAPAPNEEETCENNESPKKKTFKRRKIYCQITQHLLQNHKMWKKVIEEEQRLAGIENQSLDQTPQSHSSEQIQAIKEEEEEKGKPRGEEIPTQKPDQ
T1 sequence (Q9H5V8 30-836): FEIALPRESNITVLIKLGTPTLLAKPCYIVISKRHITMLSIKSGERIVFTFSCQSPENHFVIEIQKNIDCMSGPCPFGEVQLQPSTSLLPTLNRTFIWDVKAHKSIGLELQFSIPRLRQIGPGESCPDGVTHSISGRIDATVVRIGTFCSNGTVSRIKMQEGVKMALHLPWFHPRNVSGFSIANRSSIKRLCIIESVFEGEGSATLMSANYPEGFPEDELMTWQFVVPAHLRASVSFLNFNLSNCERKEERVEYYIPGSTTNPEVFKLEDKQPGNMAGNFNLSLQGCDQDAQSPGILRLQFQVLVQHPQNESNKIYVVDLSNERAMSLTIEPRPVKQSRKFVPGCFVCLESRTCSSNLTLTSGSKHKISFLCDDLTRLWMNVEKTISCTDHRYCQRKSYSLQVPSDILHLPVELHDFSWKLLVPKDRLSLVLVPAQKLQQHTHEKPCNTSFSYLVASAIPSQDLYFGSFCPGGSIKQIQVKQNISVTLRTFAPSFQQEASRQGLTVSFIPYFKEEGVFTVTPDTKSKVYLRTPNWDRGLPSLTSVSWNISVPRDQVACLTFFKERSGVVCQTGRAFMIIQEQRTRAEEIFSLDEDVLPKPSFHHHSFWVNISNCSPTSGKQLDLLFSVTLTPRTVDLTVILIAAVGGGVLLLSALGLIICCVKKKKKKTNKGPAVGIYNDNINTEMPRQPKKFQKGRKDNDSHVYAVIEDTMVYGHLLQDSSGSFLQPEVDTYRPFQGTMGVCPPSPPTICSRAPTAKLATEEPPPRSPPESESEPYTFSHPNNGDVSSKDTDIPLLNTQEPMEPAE
NET, sequence (P23975 whole entry): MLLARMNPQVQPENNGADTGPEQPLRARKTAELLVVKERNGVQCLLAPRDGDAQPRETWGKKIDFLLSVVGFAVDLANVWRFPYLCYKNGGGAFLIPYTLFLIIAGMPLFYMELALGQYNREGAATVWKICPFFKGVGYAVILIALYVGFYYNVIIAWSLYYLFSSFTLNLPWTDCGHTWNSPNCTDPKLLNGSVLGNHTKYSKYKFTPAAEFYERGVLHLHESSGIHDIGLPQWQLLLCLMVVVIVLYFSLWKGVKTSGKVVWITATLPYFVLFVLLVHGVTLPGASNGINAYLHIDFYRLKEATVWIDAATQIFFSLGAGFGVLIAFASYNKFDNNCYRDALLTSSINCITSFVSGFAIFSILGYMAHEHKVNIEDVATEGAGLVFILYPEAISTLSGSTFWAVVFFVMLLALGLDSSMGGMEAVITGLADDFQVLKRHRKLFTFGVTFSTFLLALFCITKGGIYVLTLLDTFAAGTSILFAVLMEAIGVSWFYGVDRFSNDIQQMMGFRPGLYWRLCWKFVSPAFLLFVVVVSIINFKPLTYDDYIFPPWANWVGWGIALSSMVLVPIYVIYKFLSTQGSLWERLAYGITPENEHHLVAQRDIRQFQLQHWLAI
Eta agonist, sequence (P25101 21-427): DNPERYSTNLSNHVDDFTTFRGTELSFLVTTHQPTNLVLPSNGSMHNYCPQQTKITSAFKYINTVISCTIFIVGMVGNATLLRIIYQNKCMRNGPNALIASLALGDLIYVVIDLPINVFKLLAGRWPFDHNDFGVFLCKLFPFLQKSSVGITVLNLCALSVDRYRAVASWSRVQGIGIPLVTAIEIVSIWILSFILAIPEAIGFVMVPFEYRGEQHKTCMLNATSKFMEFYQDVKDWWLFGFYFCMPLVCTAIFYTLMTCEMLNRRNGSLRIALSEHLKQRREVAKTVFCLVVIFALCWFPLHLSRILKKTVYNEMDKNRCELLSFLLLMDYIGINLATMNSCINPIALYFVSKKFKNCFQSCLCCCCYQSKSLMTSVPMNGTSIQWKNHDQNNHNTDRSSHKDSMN
Beta2, sequence (P07550 whole entry): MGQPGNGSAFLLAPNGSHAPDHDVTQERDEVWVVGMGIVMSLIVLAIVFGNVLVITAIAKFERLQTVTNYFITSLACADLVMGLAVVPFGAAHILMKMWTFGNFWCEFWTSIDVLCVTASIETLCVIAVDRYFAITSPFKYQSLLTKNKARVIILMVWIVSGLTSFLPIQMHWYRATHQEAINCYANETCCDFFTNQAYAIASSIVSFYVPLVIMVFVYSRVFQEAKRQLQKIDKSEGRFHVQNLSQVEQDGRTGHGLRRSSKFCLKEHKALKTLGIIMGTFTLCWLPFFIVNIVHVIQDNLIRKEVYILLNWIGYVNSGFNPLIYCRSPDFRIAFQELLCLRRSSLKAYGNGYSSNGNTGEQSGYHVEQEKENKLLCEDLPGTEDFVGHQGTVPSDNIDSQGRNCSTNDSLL
op-mu, sequence (P35372 whole entry): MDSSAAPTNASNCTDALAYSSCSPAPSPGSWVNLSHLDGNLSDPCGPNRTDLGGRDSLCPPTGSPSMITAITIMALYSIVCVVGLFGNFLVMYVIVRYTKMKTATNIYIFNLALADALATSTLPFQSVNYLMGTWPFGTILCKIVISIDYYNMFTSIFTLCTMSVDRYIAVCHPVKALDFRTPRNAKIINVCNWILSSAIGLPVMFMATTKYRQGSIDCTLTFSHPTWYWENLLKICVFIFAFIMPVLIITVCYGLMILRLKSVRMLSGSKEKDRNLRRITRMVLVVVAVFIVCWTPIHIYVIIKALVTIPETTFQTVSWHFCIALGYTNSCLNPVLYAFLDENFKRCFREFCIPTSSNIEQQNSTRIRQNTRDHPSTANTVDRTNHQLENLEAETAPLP
Beta1, sequence (P08588 whole entry): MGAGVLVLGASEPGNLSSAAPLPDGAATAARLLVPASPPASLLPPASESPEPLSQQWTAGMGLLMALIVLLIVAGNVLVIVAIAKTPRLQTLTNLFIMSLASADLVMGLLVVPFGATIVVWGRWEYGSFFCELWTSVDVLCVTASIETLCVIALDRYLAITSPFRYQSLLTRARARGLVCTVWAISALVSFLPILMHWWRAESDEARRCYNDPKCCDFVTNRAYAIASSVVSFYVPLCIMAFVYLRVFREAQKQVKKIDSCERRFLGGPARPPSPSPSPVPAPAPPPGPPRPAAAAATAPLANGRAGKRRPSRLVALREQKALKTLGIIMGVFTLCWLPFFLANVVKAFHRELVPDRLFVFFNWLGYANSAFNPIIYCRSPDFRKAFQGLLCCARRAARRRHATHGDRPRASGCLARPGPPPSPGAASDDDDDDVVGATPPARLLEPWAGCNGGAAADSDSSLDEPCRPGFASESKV
M2, sequence (P08172 whole entry): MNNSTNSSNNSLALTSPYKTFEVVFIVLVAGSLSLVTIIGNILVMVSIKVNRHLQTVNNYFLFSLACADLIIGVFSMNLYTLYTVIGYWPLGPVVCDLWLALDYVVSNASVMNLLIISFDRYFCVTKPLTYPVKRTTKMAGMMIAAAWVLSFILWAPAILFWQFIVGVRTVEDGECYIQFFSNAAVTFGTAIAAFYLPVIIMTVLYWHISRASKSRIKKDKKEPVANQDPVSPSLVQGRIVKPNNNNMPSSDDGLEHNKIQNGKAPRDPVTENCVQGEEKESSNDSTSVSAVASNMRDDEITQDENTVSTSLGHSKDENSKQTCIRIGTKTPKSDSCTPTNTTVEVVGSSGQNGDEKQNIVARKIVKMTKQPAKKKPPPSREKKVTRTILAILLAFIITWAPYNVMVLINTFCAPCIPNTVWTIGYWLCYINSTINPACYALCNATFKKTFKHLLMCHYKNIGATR

With `CCc1cnccc1C(=O)Nc1cc2c(cc1F)NC(=O)CC2` [MBE1, 3-ethyl-N-(7-fluoro-2-oxo-3,4-dihydro-1H-quinolin-6-yl)pyridine-4-carboxamide] the “Inhibition by MBE1 at 10 μM (%)” value (Ca2+-L) was −0.09%, the inhibition at 10 µM (PDE3A; read-out: Inhibition by MBE1 at 10 μM (%)) was 75.8% and the “concentration for PDE3α interaction as multiple of IC50 against ALDH1A3” value (PDE3A; screen against 44 off-target proteins) was > 100 fold. The inhibition at 10 µM (op-mu) was 3.98%, the “Raw counts of 2-Hydroxybutyric acid” value (HEK293 cells) was 460406 and 376147 and 351707 and the “Raw counts of 3-Hydroxybutyric acid” value (HEK293 cells) was 2036524 and 1752460 and 1814028. For the same compound, the “Raw counts of 3-Phosphoglycerate” value (HEK293 cells) was 54741.2 and 47239.6 and 67920.5, the “Raw counts of 3-Phosphoserine” value (HEK293 cells) was 379486 and 687080 and 597417 and the “Raw counts of 6-Phosphogluconate” value (HEK293 cells) was 18526.1 and 6100.06 and 8926.16. The “Raw counts of Carbamoyl phosphate” value (HEK293 cells) was 141074 and 139557 and 164484, the “Raw counts of Citrulline” value (HEK293 cells) was 520045 and 463794 and 470630 and the “Raw counts of Cytidine” value (HEK293 cells) was 7575.12 and 7385.3 and 7444.6. The “Raw counts of Hypoxanthine” value (HEK293 cells) was 234438 and 380137 and 398453, the “Raw counts of Isoleucine” value (HEK293 cells) was 1.16E+08 and 1.15E+08 (2×) and the “Raw counts of Lactate” value (HEK293 cells) was 5.47E+08 and 4.80E+08 and 4.40E+08. The “Raw counts of Leucine” value (HEK293 cells) was 9.35E+07 and 8.69E+07 and 8.73E+07, the “Raw counts of Methionine” value (HEK293 cells) was 2.07E+07 and 2.11E+07 and 2.08E+07 and the “Raw counts of N-acetyl-glutamine” value (HEK293 cells) was 1122707 and 1247401 and 1071948. For the same compound, the “Raw counts of Orotate” value (HEK293 cells) was 98388.4 and 120085 and 73533.2, the “Raw counts of Phenylalanine” value (HEK293 cells) was 8.50E+07 and 7.66E+07 and 8.04E+07 and the “Raw counts of Phosphoenolpyruvate” value (HEK293 cells) was 10515.5 and 13057.1 and 9934.64. The “Raw counts of Pyridoxine” value (HEK293 cells) was 4.65E+07 and 4.40E+07 and 4.42E+07, the “Raw counts of Pyruvate” value (HEK293 cells) was 7987114 and 6360434 and 6733166 and the “Raw counts of Ribitol” value (HEK293 cells) was 2730293 and 2993915 and 2689879. The “Raw counts of Sorbitol” value (HEK293 cells) was 1.69E+07 and 1.55E+07 and 1.59E+07, the “Raw counts of Taurine” value (HEK293 cells) was 2.13E+07 and 2.37E+07 and 2.28E+07 and the “Raw counts of Tryptophan” value (HEK293 cells) was 1.16E+07 and 1.11E+07 and 1.10E+07. For the same compound, the “Raw counts of Tyrosine” value (HEK293 cells) was 4.24E+07 and 4.04E+07 and 3.95E+07, the “Raw counts of UDP” value (HEK293 cells) was 175249 and 191418 and 196338 and the “Raw counts of Uracil” value (HEK293 cells) was 1015162 and 942022 and 907732. For the same compound, the “Raw counts of Uridine” value (HEK293 cells) was 82140.1 and 83430.9 and 107857, the “Raw counts of Valine” value (HEK293 cells) was 7.12E+07 and 6.86E+07 and 6.72E+07 and the “Raw counts of Xanthine” value (HEK293 cells) was 7637154 and 6442670 and 6627934. The inhibition at 10 µM (hKCNQ1) was 11.9%, the ΔTm at 1 µM (CDCP1; A-375, read-out: DMSO-1uM MBE1 TM shift) was -7.8 °C and the “1uM MBE1 Tm” value (CDCP1) was 63.2685. It also gave an inhibition at 10 µM (AR) of -10.1%, an inhibition at 10 µM (5HT3) of -18.6% and an inhibition at 10 µM (5HT2A) of -16.1%. The inhibition at 10 µM (NET) was -19.9%, the “CD4 T cells as percentage of total CD45^+ immune cells (in words)” value (T3-MCA tumors) was “increased CD4 T cells” and the inhibition at 10 µM (M2) was -6.51%. It also gave an inhibition at 10 µM (CCKa) of -1.45%, an inhibition at 10 µM (D1) of -16.4% and an inhibition at 10 µM (hERG) of -28.1%. For the same compound, the “Raw counts of 2-Hydroxybutyric acid” value (AsPC-1 cells) was 407527 and 409338 and 391016, the “Raw counts of 3-Hydroxybutyric acid” value (AsPC-1 cells) was 935326 and 777510 and 811161 and the “Raw counts of 3-Phosphoglycerate” value (AsPC-1 cells) was 27569.7 and 29653.8 and 33692.4. The “Raw counts of 3-Phosphoserine” value (AsPC-1 cells) was 0, the “Raw counts of 6-Phosphogluconate” value (AsPC-1 cells) was 2283.86 and 2700.65 and 2716.13 and the “Raw counts of Carbamoyl phosphate” value (AsPC-1 cells) was 77497 and 91797.1 and 80487.7. The “Raw counts of Citrulline” value (AsPC-1 cells) was 767940 and 822514 and 761078, the “Raw counts of Cytidine” value (AsPC-1 cells) was 42547.3 and 33951.9 and 31568.3 and the “Raw counts of Hypoxanthine” value (AsPC-1 cells) was 6602890 and 6349420 and 6667202. For the same compound, the “Raw counts of Isoleucine” value (AsPC-1 cells) was 8463643 and 7729570 and 8029520, the “Raw counts of Lactate” value (AsPC-1 cells) was 2.84E+08 and 2.40E+08 and 2.49E+08 and the “Raw counts of Leucine” value (AsPC-1 cells) was 1.56E+07 and 1.48E+07 and 1.55E+07. The “Raw counts of Methionine” value (AsPC-1 cells) was 3519797 and 3454298 and 3337800, the “Raw counts of N-acetyl-glutamine” value (AsPC-1 cells) was 14303 and 11323.4 and 0 and the “Raw counts of Orotate” value (AsPC-1 cells) was 62546.3 and 65785 and 58119.5. The “Raw counts of Phenylalanine” value (AsPC-1 cells) was 9403483 and 9101309 and 9197218, the “Raw counts of Phosphoenolpyruvate” value (AsPC-1 cells) was 23786.2 and 24455.1 and 27616 and the “Raw counts of Pyridoxine” value (AsPC-1 cells) was 1078977 and 951150 and 1075404. The “Raw counts of Pyruvate” value (AsPC-1 cells) was 3.56E+07 and 3.45E+07 and 3.67E+07, the “Raw counts of Ribitol” value (AsPC-1 cells) was 1829543 and 1600997 and 2014101 and the “Raw counts of Sorbitol” value (AsPC-1 cells) was 2.37E+07 and 2.26E+07 and 2.62E+07. For the same compound, the “Raw counts of Taurine” value (AsPC-1 cells) was 5285632 and 4263876 and 4897168, the “Raw counts of Tryptophan” value (AsPC-1 cells) was 2709598 and 2662217 and 2730749 and the “Raw counts of Tyrosine” value (AsPC-1 cells) was 5411932 and 5220208 and 5418708. The “Raw counts of UDP” value (AsPC-1 cells) was 31905 and 38800.3 and 38337.9, the “Raw counts of Uracil” value (AsPC-1 cells) was 1743558 and 1602379 and 1692033 and the “Raw counts of Uridine” value (AsPC-1 cells) was 1071683 and 996648 and 1101788. The “Raw counts of Valine” value (AsPC-1 cells) was 1.20E+07 and 1.17E+07 and 1.23E+07, the “Raw counts of Xanthine” value (AsPC-1 cells) was 6452708 and 5994216 and 6427826 and the inhibition at 10 µM (Beta2) was 3.23%. The inhibition at 10 µM (Eta agonist) was -0.16%, the inhibition at 10 µM (Beta1) was -8.49% and the inhibition at 10 µM (Alpha2A) was -1.15%.
In the case of `CCc1ccccc1C(=O)Nc1cc2c(cc1F)NC(=O)CC2` [MBE1.5, 2-ethyl-N-(7-fluoro-2-oxo-3,4-dihydro-1H-quinolin-6-yl)benzamide], the “effect on growth or survival (in words)” value [1] is reported as “no detectable effect”.
